The source made the active and inactive calls. Unless noted, the calls are words filed in the database; no cut-off is given here.
Assays:
[1] = compounds quenching green fluorescent protein signal – biochemical, plate reader, dry powder, artefact control, dose response (AID 493243)
[2] = target: DNA damage-inducible transcript 3 protein (Mus musculus, UniProt P35639); assay type: functional, Cricetulus griseus
[3] = target: T1, Replicative DNA helicase DnaB (Mycobacterium tuberculosis, UniProt P9WMR3); experiment: DnaB Intein secondary assay Measured in Biochemical System Using Plate Reader - 2047-04_Inhibitor_Dose_DryPowder_Activity. [Related pubchem assays (depositor defined):AID2223]
T1 sequence (P9WMR3 whole entry): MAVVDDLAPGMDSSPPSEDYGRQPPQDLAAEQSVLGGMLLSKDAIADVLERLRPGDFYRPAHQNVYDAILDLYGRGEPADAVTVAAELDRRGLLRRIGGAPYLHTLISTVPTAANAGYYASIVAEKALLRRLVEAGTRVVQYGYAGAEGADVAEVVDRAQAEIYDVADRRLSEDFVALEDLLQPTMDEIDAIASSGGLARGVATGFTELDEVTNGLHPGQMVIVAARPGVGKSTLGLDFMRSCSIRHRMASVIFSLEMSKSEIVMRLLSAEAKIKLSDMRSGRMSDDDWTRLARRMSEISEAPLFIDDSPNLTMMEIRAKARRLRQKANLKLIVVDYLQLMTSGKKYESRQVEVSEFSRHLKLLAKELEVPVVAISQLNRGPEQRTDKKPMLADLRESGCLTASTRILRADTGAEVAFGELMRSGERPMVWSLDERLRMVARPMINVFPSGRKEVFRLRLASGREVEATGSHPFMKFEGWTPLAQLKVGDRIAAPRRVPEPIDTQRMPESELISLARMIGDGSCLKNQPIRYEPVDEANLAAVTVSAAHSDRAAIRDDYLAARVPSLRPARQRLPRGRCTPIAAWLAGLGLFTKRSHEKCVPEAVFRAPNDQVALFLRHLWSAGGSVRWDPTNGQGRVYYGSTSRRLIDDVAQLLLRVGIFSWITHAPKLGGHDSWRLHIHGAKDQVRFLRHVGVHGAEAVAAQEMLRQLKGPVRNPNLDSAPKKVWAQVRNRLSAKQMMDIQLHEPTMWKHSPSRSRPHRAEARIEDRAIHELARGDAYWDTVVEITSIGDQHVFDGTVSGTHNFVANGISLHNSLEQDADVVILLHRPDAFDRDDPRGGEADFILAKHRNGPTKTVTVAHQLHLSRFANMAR

Protein RecA [4] = target: T2, Protein RecA (Mycobacterium tuberculosis, UniProt P9WHJ3); experiment: Fluorescence Cell-Free Homogeneous Dose Retest to Identify Inhibitors of RecA-Intein Splicing Activity. [Related pubchem assays (depositor defined):AID2097, AID2223, AID489010, AID492950]; assay type: functional
T2 sequence (P9WHJ3 whole entry): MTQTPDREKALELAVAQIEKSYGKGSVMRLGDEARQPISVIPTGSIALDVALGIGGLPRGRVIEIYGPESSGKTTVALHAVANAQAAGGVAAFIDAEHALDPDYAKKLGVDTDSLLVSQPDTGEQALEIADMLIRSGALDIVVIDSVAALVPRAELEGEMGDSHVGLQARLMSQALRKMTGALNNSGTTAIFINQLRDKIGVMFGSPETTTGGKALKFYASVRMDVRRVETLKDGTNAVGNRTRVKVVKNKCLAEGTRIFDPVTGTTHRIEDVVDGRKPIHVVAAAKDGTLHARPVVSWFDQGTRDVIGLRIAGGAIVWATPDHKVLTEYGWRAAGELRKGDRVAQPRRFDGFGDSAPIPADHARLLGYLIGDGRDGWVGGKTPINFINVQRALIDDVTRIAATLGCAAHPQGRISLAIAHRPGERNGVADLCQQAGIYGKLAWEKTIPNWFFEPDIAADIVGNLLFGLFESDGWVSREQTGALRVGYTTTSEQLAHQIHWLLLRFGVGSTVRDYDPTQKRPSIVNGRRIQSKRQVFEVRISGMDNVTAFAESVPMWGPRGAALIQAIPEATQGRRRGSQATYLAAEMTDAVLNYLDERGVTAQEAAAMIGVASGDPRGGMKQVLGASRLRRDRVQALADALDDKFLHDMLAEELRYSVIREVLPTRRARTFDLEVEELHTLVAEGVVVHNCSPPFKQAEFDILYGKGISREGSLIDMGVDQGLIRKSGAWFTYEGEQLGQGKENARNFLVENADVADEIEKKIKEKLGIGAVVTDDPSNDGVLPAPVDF

[5] = target: T3, Heat shock factor protein 1 (Mus musculus, UniProt P38532); experiment: decrease of HSF1-responsive luciferase luminescence – cell-based, NIH3T3, dose retest, confirmation (AID 2382); assay type: functional;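 further: NIH3T3 fibroblasts with HSF1-driven luciferase reporter stressed by proteasome inhibitor MG132; luminescence from HSF1-driven luciferase expression after 8 hours of MG132 stress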
T3 sequence (P38532 whole entry): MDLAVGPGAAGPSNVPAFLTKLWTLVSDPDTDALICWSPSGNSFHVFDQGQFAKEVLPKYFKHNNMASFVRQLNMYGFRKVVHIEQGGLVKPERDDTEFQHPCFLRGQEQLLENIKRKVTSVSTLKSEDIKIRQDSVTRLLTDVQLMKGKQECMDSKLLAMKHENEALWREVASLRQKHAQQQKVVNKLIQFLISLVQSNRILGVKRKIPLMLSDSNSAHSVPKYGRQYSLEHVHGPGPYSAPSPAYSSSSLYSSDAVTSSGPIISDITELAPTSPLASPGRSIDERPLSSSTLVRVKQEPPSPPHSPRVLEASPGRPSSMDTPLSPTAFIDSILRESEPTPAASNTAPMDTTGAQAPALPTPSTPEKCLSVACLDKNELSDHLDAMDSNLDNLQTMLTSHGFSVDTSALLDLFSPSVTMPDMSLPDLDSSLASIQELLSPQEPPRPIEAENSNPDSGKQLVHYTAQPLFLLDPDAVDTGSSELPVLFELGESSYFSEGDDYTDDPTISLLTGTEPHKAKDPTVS

Protein RecA [6] = target: T2, Protein RecA; experiment: RecA Intein Measured in Biochemical System Using Plate Reader - 2047-02_Inhibitor_Dose_DryPowder_Activity. [Related pubchem assays (depositor defined):AID2223]; design: species or system Mycobacterium tuberculosis H37Rv
[7] = Intein inhibitors as potential Tuberculosis drugs, a cytotoxicity screen. [Related pubchem assays (depositor defined):AID2221, AID2223, AID434968, AID435010, AID449749, AID449750, AID489010]; assay type: functional
Protein RecA [8] = target: T2, Protein RecA; experiment: GFP-RecA MOA-DTT Measured in Biochemical System Using Plate Reader - 2047-05_Inhibitor_Dose_DryPowder_Activity. [Related pubchem assays (depositor defined):AID2223]; design: species or system Mycobacterium tuberculosis H37Rv
[9] = target: T1, Replicative DNA helicase DnaB; experiment: DnaB intein splicing inhibitors, dose response, biochemical, cell-free fluorescence (AID 449749); assay type: functional
SUMO-activating enzyme [10] = target: T4, SUMO-activating enzyme (Homo sapiens, UniProt Q9UBT2); experiment: blockers of SAE1/SAE2–UBC9 SUMO transfer – biochemical, HTRF, uHTS, primary screen (AID 2006); assay type: protein-complex assay
cells [11] = assay type: functional, cell-based
cells [12] = assay type: functional, cell-based; remark: listed apart in the source
[13] = Luminescence Cell-Based Dose Retest to Confirm Inhibitors of Cancer Stem Cells. [Related pubchem assays (depositor defined):AID2717, AID2721]; assay type: functional; settings: Homo sapiens
SUMO-activating enzyme [14] = target: T4, SUMO-activating enzyme; experiment: blockers of UBC9-mediated SUMO conjugation – biochemical, AlphaScreen, SUMOylation inhibitor project, confirmation (AID 2018); assay type: functional
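Wherever CC50 is given: cells exposed to compound for 72 hours before luminescence readout.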

T4 sequence (Q9UBE0 whole entry): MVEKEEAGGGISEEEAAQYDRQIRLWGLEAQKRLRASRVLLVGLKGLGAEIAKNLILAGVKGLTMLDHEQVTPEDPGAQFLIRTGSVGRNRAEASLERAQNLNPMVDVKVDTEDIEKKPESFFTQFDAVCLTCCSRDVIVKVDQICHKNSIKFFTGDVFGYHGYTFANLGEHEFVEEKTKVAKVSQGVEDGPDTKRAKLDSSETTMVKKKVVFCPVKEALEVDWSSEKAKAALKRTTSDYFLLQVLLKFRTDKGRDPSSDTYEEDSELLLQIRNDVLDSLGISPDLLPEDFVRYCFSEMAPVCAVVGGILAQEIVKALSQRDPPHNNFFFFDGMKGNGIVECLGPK
T4 sequence (Q9UBT2 whole entry): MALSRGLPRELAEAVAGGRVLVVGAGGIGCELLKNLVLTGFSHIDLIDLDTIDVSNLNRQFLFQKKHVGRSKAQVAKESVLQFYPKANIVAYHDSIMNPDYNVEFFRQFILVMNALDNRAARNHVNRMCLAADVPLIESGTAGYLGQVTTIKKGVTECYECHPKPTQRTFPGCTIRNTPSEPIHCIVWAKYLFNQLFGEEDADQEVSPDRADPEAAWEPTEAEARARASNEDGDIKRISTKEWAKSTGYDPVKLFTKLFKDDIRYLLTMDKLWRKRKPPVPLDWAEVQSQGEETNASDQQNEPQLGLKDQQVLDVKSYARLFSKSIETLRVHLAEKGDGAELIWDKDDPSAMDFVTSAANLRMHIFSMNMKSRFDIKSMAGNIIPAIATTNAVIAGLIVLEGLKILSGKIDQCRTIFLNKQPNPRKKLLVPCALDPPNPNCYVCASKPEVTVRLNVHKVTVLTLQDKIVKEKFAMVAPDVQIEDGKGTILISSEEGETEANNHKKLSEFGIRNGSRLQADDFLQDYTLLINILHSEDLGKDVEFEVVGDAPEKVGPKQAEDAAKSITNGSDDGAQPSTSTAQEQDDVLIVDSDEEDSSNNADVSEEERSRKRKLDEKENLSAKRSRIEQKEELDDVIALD
DNA damage-inducible transcript 3 protein, sequence (P35639 whole entry): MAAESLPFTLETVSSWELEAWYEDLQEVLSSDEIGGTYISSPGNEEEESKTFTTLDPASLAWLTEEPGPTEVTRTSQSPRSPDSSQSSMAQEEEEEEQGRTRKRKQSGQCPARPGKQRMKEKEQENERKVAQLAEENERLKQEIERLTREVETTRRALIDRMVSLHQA

Row | Structure (SMILES) | AC50 [1] | Absolute IC50 (CHOP) [2] [µM] | AC50 [3] | EC50 (Protein RecA [4]) | EC50 [5] | AC50 (Protein RecA [6]) | CC50 [7] | AC50 (Protein RecA [8]) | AC50 [9] | IC50 (SUMO-activating enzyme [10]) | EC50 (cells [11]) | EC50 (cells [12]) | AC50 [13] | IC50 (SUMO-activating enzyme [14])
1 | O=C(CCl)Nc1cn(-c2ccccc2)nc1-c1ccc(F)cc1 | 262 µM (active) | 10 | 101 µM (active) | 2.77 µM (active) | 6.91 µM (active) | 8.58 µM (active) | 6.59 µM (active) | 29.4 µM (active) | 2.77 µM (active) |  |  |  |  | 
2 | C/C(=N\OCc1nc2ccccc2c(=O)n1/N=C/c1cc([N+](=O)[O-])ccc1O)c1ccccc1 |  |  |  |  |  |  |  |  |  | 41.1 µM (active) | > 350 µM (not active) | 245 µM (active) | 7.33 µM (active) | 5.22 µM (active)
